Assay results published in ChEMBL document CHEMBL1201862, “PubChem BioAssay data set” (2004).
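Each compound was tested at five concentrations against cells in 96-well plates for 48 hours. GI50 = concentration required for 50% inhibition of growth.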 Active and inactive are the calls of the source. Rule as the data show it: active = GI50 up to about 1.1 µM and inactive = higher.

Assays:
Assay in all cases: DTP human tumour cell line panel, 48 h
SF-268 = system: SF-268
Hs-578T = system: Hs-578T
IGROV-1 = system: IGROV-1
A549 = system: A549
M14 = system: M14
MDA-MB-231 = system: MDA-MB-231
UACC-62 = system: UACC-62
HL-60 = system: HL-60
SF-539 = system: SF-539
OVCAR-4 = system: OVCAR-4
CCRF-CEM = system: CCRF-CEM
NCI/ADR-RES = system: NCI/ADR-RES
COLO 205 = system: COLO 205
RPMI-8226 = system: RPMI-8226
UO-31 = system: UO-31
OVCAR-8 = system: OVCAR-8
EKVX = system: EKVX
Malme-3M = system: Malme-3M
U-251 = system: U-251
SK-OV-3 = system: SK-OV-3

| SMILES | GI50 (SF-268) | GI50 (Hs-578T) | GI50 (IGROV-1) | GI50 (A549) | GI50 (M14) | GI50 (MDA-MB-231) | GI50 (UACC-62) | GI50 (HL-60) | GI50 (SF-539) | GI50 (OVCAR-4) | GI50 (CCRF-CEM) | GI50 (NCI/ADR-RES) | GI50 (COLO 205) | GI50 (RPMI-8226) | GI50 (UO-31) | GI50 (OVCAR-8) | GI50 (EKVX) | GI50 (Malme-3M) | GI50 (U-251) | GI50 (SK-OV-3) |
| --- | --- | --- | --- | --- | --- | --- | --- | --- | --- | --- | --- | --- | --- | --- | --- | --- | --- | --- | --- | --- |
| COc1c2c(cc3oc(C)cc(=O)c13)OC(=N)C(C(N)=O)C2CC(=O)c1ccc(N)cc1 (configuration not stated) | > 100 µM (inactive) | > 100 µM (inactive) | > 100 µM (inactive) | > 100 µM (inactive) | > 100 µM (inactive) | > 100 µM (inactive) | > 100 µM (inactive) | > 100 µM (inactive) | > 100 µM (inactive) | > 100 µM (inactive) | > 100 µM (inactive) | > 100 µM (inactive) | > 100 µM (inactive) | > 100 µM (inactive) | > 100 µM (inactive) | > 100 µM (inactive) | > 100 µM (inactive) | > 100 µM (inactive) | > 100 µM (inactive) | – |
| c1ccc(-c2nnn3c2NC2=C(CCCC2)C3c2ccccc2)cc1 (configuration not stated) | 21.3 µM (inactive) | 24.9 µM (inactive) | 17.5 µM (inactive) | 12.9 µM (inactive) | 18.8 µM (inactive) | 24.6 µM (inactive) | 16.4 µM (inactive) | 18.5 µM (inactive) | 19.1 µM (inactive) | – | 12.3 µM (inactive) | 21.7 µM (inactive) | 16.5 µM (inactive) | 14.9 µM (inactive) | 17.1 µM (inactive) | 2.06 µM (inactive) | – | – | 12.5 µM (inactive) | 22.1 µM (inactive) |
| c1ccc(NN=C(c2ccccn2)c2ccccn2)nc1 | 0.388 µM (active) | 4.82 µM (inactive) | 0.0153 µM (active) | 0.384 µM (active) | 0.152 µM (active) | 0.389 µM (active) | 0.153 µM (active) | – | 1.71 µM (inactive) | 0.213 µM (active) | 0.0224 µM (active) | 0.157 µM (active) | < 0.01 µM (active) | 0.211 µM (active) | 0.0267 µM (active) | 0.0384 µM (active) | 0.335 µM (active) | 0.0653 µM (active) | 0.318 µM (active) | 0.369 µM (active) |
| Cc1nc2c(=O)n(C)ncc2[nH]1 | > 100 µM (inactive) | 77.1 µM (inactive) | > 100 µM (inactive) | > 100 µM (inactive) | > 100 µM (inactive) | > 100 µM (inactive) | > 100 µM (inactive) | 33.4 µM (inactive) | > 100 µM (inactive) | – | > 100 µM (inactive) | > 100 µM (inactive) | > 100 µM (inactive) | > 100 µM (inactive) | > 100 µM (inactive) | > 100 µM (inactive) | > 100 µM (inactive) | – | > 100 µM (inactive) | – |
| COc1ccc2c(c1)-c1c(c3cc(OC)ccc3n1CCCN(C)C)CC2 | 10.7 µM (inactive) | 4.29 µM (inactive) | 2.93 µM (inactive) | 12.1 µM (inactive) | 2.03 µM (inactive) | 13 µM (inactive) | 6.98 µM (inactive) | 15.3 µM (inactive) | – | 11 µM (inactive) | 4.46 µM (inactive) | 12.7 µM (inactive) | 2.02 µM (inactive) | 5.24 µM (inactive) | 10.8 µM (inactive) | 13.7 µM (inactive) | 13.2 µM (inactive) | 2.28 µM (inactive) | 8.67 µM (inactive) | 16.2 µM (inactive) |
| COc1ncc(C#CC(=O)c2ccccc2OC)c(OC)n1 | 3.61 µM (inactive) | 9.98 µM (inactive) | 1.82 µM (inactive) | 5.98 µM (inactive) | 1.78 µM (inactive) | 0.92 µM (active) | 2.6 µM (inactive) | 0.432 µM (active) | – | 5.78 µM (inactive) | 0.0995 µM (active) | 2.01 µM (inactive) | 2 µM (inactive) | 2.61 µM (inactive) | 1.55 µM (inactive) | 2.06 µM (inactive) | 3.25 µM (inactive) | 1.61 µM (inactive) | 3.89 µM (inactive) | 25.6 µM (inactive) |
| CC(=O)Oc1ccc(-c2cc3ccccc3oc2=O)cc1 | > 100 µM (inactive) | > 100 µM (inactive) | – | > 100 µM (inactive) | > 100 µM (inactive) | > 100 µM (inactive) | – | 24.8 µM (inactive) | > 100 µM (inactive) | > 100 µM (inactive) | > 100 µM (inactive) | > 100 µM (inactive) | > 100 µM (inactive) | > 100 µM (inactive) | > 100 µM (inactive) | > 100 µM (inactive) | 61.1 µM (inactive) | > 100 µM (inactive) | > 100 µM (inactive) | – |
